These results are taken from patent US20220194939A1, “Novel compounds and methods of use treating fructose-related disorders or diseases” (Colorado Research Partners, LLC, priority 2019, published 2022).

pIC50: −log10 of the molar value. Where a name gives a salt, the structure may show the parent alone.

This assay addresses T1, KHK (Homo sapiens, UniProt P50053).
T1 construct: (His)6 tag (N); thrombin cleavage site (N); made in house; host or cells: E. coli BL-21 (DE3)
T1 sequence (P50053 1-298): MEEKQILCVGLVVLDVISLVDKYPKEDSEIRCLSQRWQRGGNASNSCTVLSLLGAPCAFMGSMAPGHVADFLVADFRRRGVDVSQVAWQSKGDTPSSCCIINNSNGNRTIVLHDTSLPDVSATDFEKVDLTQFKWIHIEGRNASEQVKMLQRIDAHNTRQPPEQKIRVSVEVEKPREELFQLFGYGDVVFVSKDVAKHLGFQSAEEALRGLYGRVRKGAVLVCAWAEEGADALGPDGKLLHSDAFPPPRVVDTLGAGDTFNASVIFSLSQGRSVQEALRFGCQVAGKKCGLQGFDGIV
As to the kind of experiment: coupled enzyme assay for KHK activity. As to conditions: purified human recombinant KHK, PK/LDH coupled assay, A340 at 25° C., 0.1 mM ATP, 0.2 mM fructose; isoform (KHK-C or KHK-A) not given. It is filed as biochemical. The text has this: Specific coupled enzyme screening assays were developed for KHK-C and KHK-A using recombinant proteins. Purified human recombinant KHK-C and KHK-A were produced using by expression in E. coli BL-21 (DE3) using IPTG induction as a His-tagged fusion proteins and purified using Ni-NTA chromatography on His-Trap FF columns. For KHK-C, the coding region from NCBI refseq number NM_006488 was inserted at the Nde I site of pET28a(+) vector, which puts it downstream from an amino-terminal (His)6 tag and a thrombin cleavage site. The same was done for KHK-A using the coding regions from NCBI refseq number NM_000221.2. The protein was expressed in BL-21 (DE3) using IPTG induction and purified using Ni-NTA (GE His Trap FF) column. The protein was washed with 100 column volumes, eluted with 3 column volumes, and dialyzed with HEPES, pH 7.4 buffers containing 20, 500, and 0 mM imidazole, respectively. The dialysate was concentrated by ultrafiltration (10kD MWCO) to >15 mg/mL protein. The protein prep was >95% pure on SDS-PAGE and the molecular weight was confirmed by relative mobility to be 33,730 Da (34,826 expected).
The assay uses the product of the KHK reaction, ADP, to drive a signal measured in real time for measuring the reaction rate. This consists of a 3-step, coupled-enzyme process by which pyruvate kinase (PK), which converts the ADP from the KHK reaction along with phosphoenolpyruvate (PEP) to ATP and pyruvate, respectively. The pyruvate is converted along with NADH to lactate and NAD+ by lactate dehydrogenase (LDH). The disappearance of NADH is measured kinetically by monitoring A340 at 25° C. for 15 minutes. The enzymatic assay was carried out in a total reaction volume of 200 μL containing 33 mM triethanolamine-HCl, pH 7.4, 6 mM MgCl2, 100 mM KCl, 0.1 mM ATP, 1.33 mM PEP, 0.3 mM NADH, 0.2-1.0 U of PK, 0.2-1.0 U of LDH, and 150-240 nM KHK-C or KHK-A (0.01-0.02 U). Fructose was added to initiate the reactions to 0.2 mM, except for the no fructose controls which utilized water. This high-throughput assay was used to identify inhibitors that have an IC50 value<1 μM for KHK-C and to confirm that those values for KHK-A were not more than 2-fold lower.
For orientation: pIC50 means the negative decadic logarithm of the IC50, by convention in mol/L. `Cc1cccc(-n2ncc3ccc(NC(=O)[C@H]4CC[C@@H]4N)cc32)c1` (relative stereo) [Compound 9, trans-2-amino-N-(1-(m-tolyl)-1H-indazol-6-yl)cyclobutanecarboxamide hydrochloride]: the pIC50 is 6.17.
In the case of `Cc1cccc(-n2ncc3ccc(NC(=O)C(N)CO)cc32)c1` (stereo not drawn) [Compound 1, 2-amino-3-hydroxy-N-(1-(m-tolyl)-1H-indazol-6-yl)propanamide hydrochloride], the pIC50 was 6.92.
The same measure for `Cc1cccc(-n2ncc3ccc(NC(=O)[C@H](N)CO)cc32)c1` [Compound 2, (R)-2-amino-3-hydroxy-N-(1-(m-tolyl)-1H-indazol-6-yl)propanamide hydrochloride]: 6.92; for `Cc1cccc(-n2ncc3ccc(NC(=O)[C@@H](N)CO)cc32)c1` [Compound 3, (S)-2-amino-3-hydroxy-N-(1-(m-tolyl)-1H-indazol-6-yl)propanamide hydrochloride]: 7.40.
Take `Cc1cccc(-n2ncc3ccc(NC(=O)[C@H](CN)CO)cc32)c1` [Compound 4, (R)-3-amino-2-(hydroxymethyl)-N-(1-(m-tolyl)-1H-indazol-6-yl)propanamide hydrochloride]: the pIC50 was 6.21.
In the case of `Cc1cccc(-n2ncc3ccc(NC(=O)[C@H](C)N)cc32)c1` [Compound 6, (S)-2-amino-N-(1-(m-tolyl)-1H-indazol-6-yl)propanamide hydrochloride] it was 6.96; in that of `Cc1cccc(-n2ncc3ccc(NC(=O)[C@@H](C)N)cc32)c1` [Compound 7, (R)-2-amino-N-(1-(m-tolyl)-1H-indazol-6-yl)propanamide hydrochloride], 6.57.
With `Cc1cccc(-n2ncc3ccc(NC(=O)C(CN)C(C)C)cc32)c1` (stereo not drawn) [Compound 8, 2-(aminomethyl)-3-methyl-N-(1-(m-tolyl)-1H-indazol-6-yl)butanamide hydrochloride], the pIC50 is 5.31.
The same measure for `Cc1cccc(-n2ncc3ccc(NC(=O)[C@@H](N)CCO)cc32)c1` [Compound 10, (S)-2-amino-4-hydroxy-N-(1-(m-tolyl)-1H-indazol-6-yl)butanamide hydrochloride]: 6.40; for `Cc1cccc(-n2ncc3ccc(NC(=O)C[C@H](N)CO)cc32)c1` [Compound 11, (S)-3-amino-4-hydroxy-N-(1-(m-tolyl)-1H-indazol-6-yl)butanamide hydrochloride]: 5.92; for `Cc1cccc(-n2ncc3ccc(NC(=O)[C@H](N)CCO)cc32)c1` [Compound 12, (R)-2-amino-4-hydroxy-N-(1-(m-tolyl)-1H-indazol-6-yl)butanamide hydrochloride]: 6.07.
Consider `Cc1cccc(-n2ncc3ccc(NC(=O)[C@@H](N)CCN)cc32)c1` [Compound 13, (S)-2,4-diamino-N-(1-(m-tolyl)-1H-indazol-6-yl)butanamide], for which the pIC50 is 6.46.
For `Cc1cccc(-n2ncc3ccc(NC(=O)[C@H](N)CN)cc32)c1` [Compound 14, (R)-2,3-diamino-N-(1-(m-tolyl)-1H-indazol-6-yl)propanamide dihydrochloride], the pIC50 is 5.96.
In the case of `Cc1cccc(-n2ncc3ccc(NC(=O)[C@@H](N)CN)cc32)c1` [Compound 15, (S)-2,3-diamino-N-(1-(m-tolyl)-1H-indazol-6-yl)propanamide dihydrochloride] it was 6.20; in that of `Cc1cccc(-n2ncc3ccc(NC(=O)[C@H]4C[C@@H](N)C4)cc32)c1` [Compound 16, (cis)-3-amino-N-(1-(m-tolyl)-1H-indazol-6-yl)cyclobutanecarboxamide hydrochloride], 6.22.
As to `Cc1cccc(-n2ncc3ccc(NC(=O)[C@@H](N)[C@H](C)O)cc32)c1` [Compound 17, (2S,3S)-2-amino-3-hydroxy-N-(1-(m-tolyl)-1H-indazol-6-yl)butanamide hydrochloride], the pIC50 is 5.15.
As to `Cc1cccc(-n2ncc3ccc(NC(=O)[C@H]4NCC[C@@H]4O)cc32)c1` [Compound 18, (2S,3S)-3-hydroxy-N-(1-(m-tolyl)-1H-indazol-6-yl)pyrrolidine-2-carboxamide hydrochloride], the pIC50 was 6.15.
For the compound `Cc1cccc(-n2ncc3c(F)cc(NC(=O)[C@H]4NCC[C@@H]4O)cc32)c1` [Compound 19, (2S,3S)-N-(4-fluoro-1-(m-tolyl)-1H-indazol-6-yl)-3-hydroxypyrrolidine-2-carboxamide hydrochloride], the pIC50 was 6.28.
As for `Cc1cccc(-n2ncc3ccc(NC(=O)[C@@H](N)[C@@H](C)O)cc32)c1` [Compound 20, (2S,3R)-2-amino-3-hydroxy-N-(1-(m-tolyl)-1H-indazol-6-yl)butanamide hydrochloride], the pIC50 was 6.14.
As for `Cc1cccc(-n2ncc3ccc(NC(=O)[C@@H](N)C(C)(C)O)cc32)c1` [Compound 21, (S)-2-amino-3-hydroxy-3-methyl-N-(1-(m-tolyl)-1H-indazol-6-yl]butanamide hydrochloride], the pIC50 is 5.44.
In the case of `Cc1cccc(-n2ncc3ccc(NC(=O)[C@@](C)(N)CO)cc32)c1` [Compound 22, (S)-2-amino-3-hydroxy-2-methyl-N-(1-(m-tolyl)-1H-indazol-6-yl)propanamide hydrochloride] it was 6.38.
Regarding `Cc1cccc(-n2ncc3c(F)cc(NC(=O)[C@@H](N)CO)cc32)c1` [Compound 23, (S)-2-amino-N-(4-fluoro-1-(m-tolyl)-1H-indazol-6-yl)-3-hydroxypropanamide hydrochloride], the negative logarithm of the IC50 (pIC50) was 7.62.
In the case of `CCCCCCCC(=O)OC[C@H](N)C(=O)Nc1ccc2cnn(-c3cccc(C)c3)c2c1` [Compound 24, (S)-2-amino-3-oxo-3-((1-(m-tolyl)-1H-indazol-6-yl)amino)propyl octanoate hydrochloride] it was 4.92; in that of `Cc1cccc(-n2ncc3ccc(NC(=O)[C@@H](N)COC(=O)c4cccnc4)cc32)c1` [Compound 25, (S)-2-amino-3-oxo-3-((1-(m-tolyl)-1H-indazol-6-yl)amino)propyl nicotinate hydrochloride], less than 3.00; in that of `CCCCCCCC(=O)OC[C@H](N)C(=O)Nc1cc(F)c2cnn(-c3cccc(C)c3)c2c1` [Compound 26, (S)-2-amino-3-((4-fluoro-1-(m-tolyl)-1H-indazol-6-yl)amino)-3-oxopropyl octanoate hydrochloride], 5.10.
As to `CCOC(=O)N[C@@H](COC(C)=O)C(=O)Nc1ccc2cnn(-c3cccc(C)c3)c2c1` [Compound 30, (S)-2-((ethyloxycarbonyl)amino)-3-oxo-3-((1-(m-tolyl)-1H-indazol-6-yl)amino)propyl acetate], the negative-log IC50 (pIC50) was 4.62.
For the compound `CC(=O)OC[C@H](NC(=O)OC(C)C)C(=O)Nc1ccc2cnn(-c3cccc(C)c3)c2c1` [Compound 31, (S)-2-((isopropoxycarbonyl)amino)-3-oxo-3-((1-(m-tolyl)-1H-indazol-6-yl)amino)propyl acetate], the pIC50 was 4.52.
With `CCOC(=O)N[C@@H](COC(=O)c1cccnc1)C(=O)Nc1ccc2cnn(-c3cccc(C)c3)c2c1` [Compound 32, (S)-2-((ethyloxycarbonyl)amino)-3-oxo-3-((1-(m-tolyl)-1H-indazol-6-yl)amino)propyl nicotinate], the pIC50 was less than 3.00.
In the case of `Cc1cccc(-n2ncc3ccc(NC(=O)[C@H](COC(=O)c4cccnc4)NC(=O)OC(C)C)cc32)c1` [Compound 33, (S)-2-((isopropoxycarbonyl)amino)-3-oxo-3-((1-(m-tolyl)-1H-indazol-6-yl)amino)propyl nicotinate] it was less than 3.00.
In the case of `CCCCCCCC(=O)OC[C@H](NC(=O)OCC)C(=O)Nc1ccc2cnn(-c3cccc(C)c3)c2c1` [Compound 34, (S)-2-((ethoxycarbonyl)amino)-3-oxo-3-((1-(m-tolyl)-1H-indazol-6-yl)amino)propyl octanoate] it was less than 3.00.
